Experimental data: the NIST ThermoML archive (doi:10.1021/je500513b)
± gives the expanded uncertainty stated by the source.

Assay: mn = molality of the nth substance listed, in mol/kg
Details: 298.15 K, Pendant drop shape, m2 = 0

surface tension liquid-gas: 71.98 ± 2.4 mN/m
SMILES: O [water] + CCCCCCCCCCCC[N+](C)(C)CCCC[N+](C)(C)CCCCCCCCCCCC.[Br-].[Br-]
